# Source: ChEMBL document CHEMBL3861944 (Medchemcomm, 2016)
# Assays:
# [1] = test system: ASPC1; experiment: Pro-apoptotic activity in human AsPC1 cells after 24 hrs by annexin V/propidium iodide staining-based flow cytometric method; type: functional; details: ASPC1, 24 h, read-out: ED50 (the source's name)
# [2] = test system: THP-1; experiment: Pro-apoptotic activity in human THP1 cells assessed as early apoptotic cells at 0.5 uM after 24 hrs by annexin V/propidium iodide staining-based flow cytometric method (reference value: 0.4 +/- 0.1%); type: functional
# [3] = test system: THP-1; experiment: Pro-apoptotic activity in human THP1 cells assessed as early apoptotic cells at 1 uM after 24 hrs by annexin V/propidium iodide staining-based flow cytometric method (reference value: 0.4 +/- 0.1%); type: functional
# [4] = test system: THP-1; experiment: Pro-apoptotic activity in human THP1 cells assessed as late apoptotic cells at 1 uM after 24 hrs by annexin V/propidium iodide staining-based flow cytometric method (reference value: 0.4 +/- 0.1%); type: functional
# [5] = test system: THP-1; experiment: Pro-apoptotic activity in human THP1 cells assessed as necrotic cells at 1 uM after 24 hrs by annexin V/propidium iodide staining-based flow cytometric method relative to control; type: functional
# [6] = test system: THP-1; experiment: Pro-apoptotic activity in human THP1 cells assessed as late apoptotic cells at 3 uM after 24 hrs by annexin V/propidium iodide staining-based flow cytometric method (reference value: 0.4 +/- 0.1%); type: functional
# [7] = test system: THP-1; experiment: Pro-apoptotic activity in human THP1 cells assessed as necrotic cells at 3 uM after 24 hrs by annexin V/propidium iodide staining-based flow cytometric method relative to control; type: functional
# [8] = test system: THP-1; experiment: Pro-apoptotic activity in human THP1 cells assessed as necrotic cells at 10 uM after 24 hrs by annexin V/propidium iodide staining-based flow cytometric method relative to control; type: functional
# [9] = test system: ASPC1; experiment: Pro-apoptotic activity in human AsPC1 cells assessed as late apoptotic cells at 1 uM after 24 hrs by annexin V/propidium iodide staining-based flow cytometric method (reference value: 0.8 +/- 0.1%); type: functional
# [10] = test system: ASPC1; experiment: Pro-apoptotic activity in human AsPC1 cells assessed as necrotic cells at 1 uM after 24 hrs by annexin V/propidium iodide staining-based flow cytometric method (reference value: 2.1 +/- 0.4%); type: functional
# [11] = test system: ASPC1; experiment: Pro-apoptotic activity in human AsPC1 cells assessed as late apoptotic cells at 10 uM after 24 hrs by annexin V/propidium iodide staining-based flow cytometric method (reference value: 0.8 +/- 0.1%); type: functional
# [12] = test system: ASPC1; experiment: Pro-apoptotic activity in human AsPC1 cells assessed as necrotic cells at 10 uM after 24 hrs by annexin V/propidium iodide staining-based flow cytometric method (reference value: 2.1 +/- 0.4%); type: functional
# [13] = test system: ASPC1; experiment: Pro-apoptotic activity in human AsPC1 cells assessed as early apoptotic cells at 30 uM after 24 hrs by annexin V/propidium iodide staining-based flow cytometric method (reference value: 0.8 +/- 0.1%); type: functional
# [14] = test system: ASPC1; experiment: Pro-apoptotic activity in human AsPC1 cells assessed as late apoptotic cells at 30 uM after 24 hrs by annexin V/propidium iodide staining-based flow cytometric method (reference value: 0.8 +/- 0.1%); type: functional
# [15] = test system: ASPC1; experiment: Pro-apoptotic activity in human AsPC1 cells assessed as necrotic cells at 50 uM after 24 hrs by annexin V/propidium iodide staining-based flow cytometric method (reference value: 2.1 +/- 0.4%); type: functional
# [16] = test system: ASPC1; experiment: Pro-apoptotic activity in human AsPC1 cells assessed as early apoptotic cells at 75 uM after 24 hrs by annexin V/propidium iodide staining-based flow cytometric method (reference value: 0.8 +/- 0.1%); type: functional
# [17] = test system: ASPC1; experiment: Pro-apoptotic activity in human AsPC1 cells assessed as necrotic cells at 75 uM after 24 hrs by annexin V/propidium iodide staining-based flow cytometric method (reference value: 2.1 +/- 0.4%); type: functional
# [18] = Cell cycle arrest in human THP1 cells assessed as accumulation at S phase at 0.5 uM after 24 hrs by flow cytometric method (reference value: 16 +/- 2%); type: functional, cell-based; details: THP-1
# [19] = Cell cycle arrest in human THP1 cells assessed as accumulation at G2/M phase at 0.5 uM after 24 hrs by flow cytometric method (reference value: 32 +/- 1%); type: functional, cell-based; details: THP-1
# [20] = Cell cycle arrest in human THP1 cells assessed as accumulation at G0/G1 phase at 0.75 uM after 24 hrs by flow cytometric method (reference value: 51 +/- 6%); type: functional, cell-based; details: THP-1
# [21] = Cell cycle arrest in human THP1 cells assessed as accumulation at S phase at 0.75 uM after 24 hrs by flow cytometric method (reference value: 16 +/- 2%); type: functional, cell-based; details: THP-1
# [22] = Cell cycle arrest in human THP1 cells assessed as accumulation at G2/M phase at 0.75 uM after 24 hrs by flow cytometric method (reference value: 32 +/- 1%); type: functional, cell-based; details: THP-1
# [23] = Cell cycle arrest in human THP1 cells assessed as accumulation at G0/G1 phase at 3 uM after 24 hrs by flow cytometric method (reference value: 51 +/- 6%); type: functional, cell-based; details: THP-1
# [24] = Cell cycle arrest in human THP1 cells assessed as accumulation at S phase at 3 uM after 24 hrs by flow cytometric method (reference value: 16 +/- 2%); type: functional, cell-based; details: THP-1
# [25] = Cell cycle arrest in human THP1 cells assessed as accumulation at G2/M phase at 3 uM after 24 hrs by flow cytometric method (reference value: 32 +/- 1%); type: functional, cell-based; details: THP-1
# [26] = Cell cycle arrest in human THP1 cells assessed as accumulation at S phase at 10 uM after 24 hrs by flow cytometric method (reference value: 16 +/- 2%); type: functional, cell-based; details: THP-1
# [27] = Cell cycle arrest in human THP1 cells assessed as accumulation at G0/G1 phase at 30 uM after 24 hrs by flow cytometric method (reference value: 51 +/- 6%); type: functional, cell-based; details: THP-1
# [28] = Cell cycle arrest in human THP1 cells assessed as accumulation at S phase at 30 uM after 24 hrs by flow cytometric method (reference value: 16 +/- 2%); type: functional, cell-based; details: THP-1
# [29] = Cell cycle arrest in human AsPC1 cells assessed as accumulation at S phase at 1 uM after 24 hrs by flow cytometric method (reference value: 23 +/- 3%); type: functional, cell-based
# [30] = Cell cycle arrest in human AsPC1 cells assessed as accumulation at G2/M phase at 1 uM after 24 hrs by flow cytometric method (reference value: 29 +/- 5%); type: functional, cell-based
# [31] = Cell cycle arrest in human AsPC1 cells assessed as accumulation at S phase at 30 uM after 24 hrs by flow cytometric method (reference value: 23 +/- 3%); type: functional, cell-based
# [32] = Cell cycle arrest in human AsPC1 cells assessed as accumulation at G2/M phase at 30 uM after 24 hrs by flow cytometric method (reference value: 29 +/- 5%); type: functional, cell-based
# [33] = Cell cycle arrest in human AsPC1 cells assessed as accumulation at S phase at 50 uM after 24 hrs by flow cytometric method (reference value: 23 +/- 3%); type: functional, cell-based
# [34] = Cell cycle arrest in human AsPC1 cells assessed as accumulation at G0/G1 phase at 100 uM after 24 hrs by flow cytometric method (reference value: 48 +/- 7%); type: functional, cell-based
# [35] = Cell cycle arrest in human THP1 cells assessed as decrease in cell levels at G0/G1 phase after 24 hrs by flow cytometric method; type: functional, cell-based; details: THP-1
# [36] = Cell cycle arrest in human THP1 cells assessed as decrease in cell levels at G2/M phase after 24 hrs by flow cytometric method; type: functional, cell-based; details: THP-1
structure (smiles),measurement,setting,value
NC(=[Se])N/N=C/c1cccc2cccnc12,EC50,[1],> 100 µM
same,Activity,[2],1.7%
same,Activity,[3],1.5%
same,Activity,[4],2%
same,Activity,[5],0.4%
same,Activity,[6],3%
same,Activity,[7],0.4%
same,Activity,[8],4%
same,Activity,[9],0.4%
same,Activity,[10],1.8%
same,Activity,[11],0.8%
same,Activity,[12],1.6%
same,Activity,[13],0%
same,Activity,[14],1.1%
same,Activity,[15],1.7%
same,Activity,[16],0.6%
same,Activity,[17],4.1%
same,Activity,[18],22%
same,Activity,[19],27%
same,Activity,[20],44%
same,Activity,[21],21%
same,Activity,[22],34%
same,Activity,[23],43%
same,Activity,[24],27%
same,Activity,[25],30%
same,Activity,[26],27%
same,Activity,[27],43%
same,Activity,[28],32%
same,Activity,[29],35.5%
same,Activity,[30],10.6%
same,Activity,[31],22.5%
same,Activity,[32],8.2%
same,Activity,[33],26%
same,Activity,[34],64.1%
same,Activity,[35],Dose-dependent effect
same,Activity,[36],Dose-dependent effect
